This is an account of results in patent US10758534B2 (Vertex Pharmaceuticals Incorporated, priority 2014, dated 2020).

The structures appear in SMILES notation. Like-named read-outs stand apart in the source and are kept apart here. A value given as a limit tells only on which side of the number the result lay.

In the assay the target is T1, F508del (Homo sapiens, UniProt P13569, DEL508-508).
T1 construct: expressed in transfected cells
Briefly: Protocol 2: FRET membrane potential optical assay (VIPR), identification of correction compounds. The format is cell-based. The essentials:
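NIH3T3 mouse fibroblasts stably expressing F508del were treated with test compound for 16 hrs at 37° C. in serum-free medium; 27° C. incubation served as positive control. F508del was activated with 10 μM forskolin plus 20 μM genistein in Cl^−-free medium, and Cl^− efflux-driven depolarization was read by DiSBAC2(3)/CC2-DMPE FRET.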

Setting [1] is: F508del CFTR modulator activity, compounds of Table 1, read-out: EC30.
Where [2] appears, read: Table 3, compounds of Table 1 as modulators of CFTR activity, protocol not stated.

T1 sequence (P13569 with tags, fused parts or gaps DEL508-508): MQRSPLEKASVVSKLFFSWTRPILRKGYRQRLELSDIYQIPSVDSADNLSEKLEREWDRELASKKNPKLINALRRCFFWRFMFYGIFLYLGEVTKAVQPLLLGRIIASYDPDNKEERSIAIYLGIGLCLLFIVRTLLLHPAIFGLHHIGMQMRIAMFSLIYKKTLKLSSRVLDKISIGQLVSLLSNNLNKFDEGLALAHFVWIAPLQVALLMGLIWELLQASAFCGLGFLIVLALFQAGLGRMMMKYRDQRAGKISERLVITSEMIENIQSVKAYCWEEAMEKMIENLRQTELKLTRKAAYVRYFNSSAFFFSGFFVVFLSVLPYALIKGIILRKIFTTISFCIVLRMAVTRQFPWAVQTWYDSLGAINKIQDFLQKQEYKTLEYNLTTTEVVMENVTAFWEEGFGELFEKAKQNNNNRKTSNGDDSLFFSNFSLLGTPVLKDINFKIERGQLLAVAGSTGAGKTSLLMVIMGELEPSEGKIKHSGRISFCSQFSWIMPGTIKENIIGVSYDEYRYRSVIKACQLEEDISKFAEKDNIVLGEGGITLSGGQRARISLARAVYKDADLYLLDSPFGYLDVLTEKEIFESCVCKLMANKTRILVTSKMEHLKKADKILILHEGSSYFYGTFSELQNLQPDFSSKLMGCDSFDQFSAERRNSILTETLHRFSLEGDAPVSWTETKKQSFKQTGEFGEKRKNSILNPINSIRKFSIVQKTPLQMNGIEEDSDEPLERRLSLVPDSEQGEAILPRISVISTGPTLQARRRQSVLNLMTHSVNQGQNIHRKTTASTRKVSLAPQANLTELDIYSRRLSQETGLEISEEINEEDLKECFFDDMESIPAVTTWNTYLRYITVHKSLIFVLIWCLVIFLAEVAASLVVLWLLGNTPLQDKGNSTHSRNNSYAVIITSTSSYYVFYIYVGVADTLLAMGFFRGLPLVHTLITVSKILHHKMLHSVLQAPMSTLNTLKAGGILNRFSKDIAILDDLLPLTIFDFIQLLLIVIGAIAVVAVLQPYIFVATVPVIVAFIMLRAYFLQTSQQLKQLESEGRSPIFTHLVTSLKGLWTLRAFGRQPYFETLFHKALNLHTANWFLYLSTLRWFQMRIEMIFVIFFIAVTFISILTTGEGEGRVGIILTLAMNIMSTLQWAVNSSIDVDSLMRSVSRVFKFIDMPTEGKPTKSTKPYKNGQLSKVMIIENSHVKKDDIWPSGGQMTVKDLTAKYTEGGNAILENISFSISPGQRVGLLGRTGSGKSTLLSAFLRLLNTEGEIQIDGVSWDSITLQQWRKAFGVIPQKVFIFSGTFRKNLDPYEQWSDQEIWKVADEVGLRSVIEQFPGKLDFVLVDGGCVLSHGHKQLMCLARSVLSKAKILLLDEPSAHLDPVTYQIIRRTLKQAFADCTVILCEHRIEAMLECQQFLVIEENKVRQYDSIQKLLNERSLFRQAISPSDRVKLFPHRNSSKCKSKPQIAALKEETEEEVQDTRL

As a reminder, the EC30 is the concentration at which the effect reaches the 30% level. For the molecule `Cc1ccccc1-c1ccc(C(=O)NS(=O)(=O)c2ccc[nH]c2=O)c(N2C[C@@H](C)CC2(C)C)n1` [Compound 2176, 6-(o-tolyl)-N-[(2-oxo-1H-pyridin-3-yl)sulfonyl]-2-[(4S)-2,2,4-trimethylpyrrolidin-1-yl]pyridine-3-carboxamide], the EC30 under setting [1] is below 3 µM. Regarding `Nc1cccc(S(=O)(=O)NC(=O)c2cccnc2N2CCCC(c3ccccc3)C2)n1` (single isomer, unassigned) [Compound 2615], under setting [1], the concentration for an effect of 30% (EC30) fell in the range of 3 to 10 µM. For `Cc1cc(C)c(Cc2ccc(C(C)(C)C)nc2C(=O)NS(=O)(=O)c2cccc(N)c2)c(C)c1` [Compound 313, N-(3-aminophenyl)sulfonyl-6-tert-butyl-3-[(2,4,6-trimethylphenyl)methyl]pyridine-2-carboxamide], the 30% effect concentration (EC30) result under setting [2] is recorded as “+++ (“+++” means <3 uM)”. In the case of `COc1ccccc1-c1cc(C(=O)NS(=O)(=O)c2ccccc2)n(Cc2c(C)cccc2C)n1` [Compound 347, N-(benzenesulfonyl)-2-[(2,6-dimethylphenyl)methyl]-5-(2-methoxyphenyl)pyrazole-3-carboxamide], under setting [2], the EC30 entry was “+++ (“+++” means <3 uM)”. Same read-out and setting: for `Cc1cc(C)c(Oc2nc(-c3cccc(C(F)(F)F)c3)ccc2C(=O)NS(=O)(=O)c2cccc(N)n2)c(C)c1` [Compound 709, N-[(6-amino-2-pyridyl)sulfonyl]-6-[13-(trifluoromethyl)phenyl]-2-(2,4,6-trimethylphenoxy)pyridine-3-carboxamide] the value was “+++ (“+++” means <3 uM)”. As for `CC(C)Oc1ccccc1-c1ccc(C(=O)NS(=O)(=O)c2ccc[nH]c2=O)c(N2C[C@@H](C)CC2(C)C)n1` [Compound 2541, 6-(2-isopropoxyphenyl)-N-[(2-oxo-1H-pyridin-3-yl)sulfonyl]-2-[(4S)-2,2,4-trimethylpyrrolidin-1-yl]pyridine-3-carboxamide], the concentration for an effect of 30% (EC30) under setting [1] is below 3 µM. As for `Cc1cc(C)c(CN2Cc3c(C(C)C)cccc3C2C(=O)NS(=O)(=O)c2cccc(N)c2)c(C)c1` (stereo not drawn) [Compound 299, N-(3-aminophenyl)sulfonyl-4-isopropyl-2-[(2,4,6-trimethylphenyl)methyl]isoindoline-1-carboxamide], the EC30 entry under setting [2] is given as “+++ (“+++” means <3 uM)”. With `CCC(CC)CNc1cccc(S(=O)(=O)NC(=O)c2cccnc2N2CC(C)CC2(C)C)n1` (stereo not drawn) [Compound 2305, N—[[6-(2-ethylbutylamino)-2-pyridyl]sulfonyl]-2-(2,2,4-trimethylpyrrolidin-1-yl)pyridine-3-carboxamide], under setting [1], the EC30 is below 3 µM. With `CC1CC(C)CN(c2nc(C(C)(C)C)ccc2C(=O)NS(=O)(=O)c2cccc(N)n2)C1` (stereo not drawn) [Compound 617, N-[(6-amino-2-pyridyl)sulfonyl]-6-tert-butyl-2-(3,5-dimethyl-1-piperidyl)pyridine-3-carboxamide], the EC30 result under setting [2] was “+++ (“+++” means <3 uM)”. In the case of `COc1ccc(Nc2cccc(S(=O)(=O)NC(=O)c3cccnc3N3CC(C)CC3(C)C)n2)cc1Cl` (stereo not drawn) [Compound 2571, N—[[6-(3-chloro-4-methoxy-anilino)-2-pyridyl]sulfonyl]-2-(2,24-trimethylpyrrolidin-1-yl)pyridine-3-carboxamide], the concentration for an effect of 30% (EC30) under setting [1] was below 3 µM. `CCN(CC)c1ccc(-c2cc(C(=O)NS(=O)(=O)c3ccccc3)n(Cc3c(C)cccc3C)n2)cc1` [Compound 162, N-(benzenesulfonyl)-5-[4-(diethylamino)phenyl]-2-[(2,6-dimethylphenyl)methyl]pyrazole-3-carboxamide]: under setting [2], the concentration for an effect of 30% (EC30) result is reported as “+++ (“+++” means <3 uM)”. On to `CC1CN(c2ncc(-c3ccc(N(C)C)cc3)cc2C(=O)NS(=O)(=O)c2cccc(N)n2)C(C)(C)C1` (stereo not drawn) [Compound 2288, N-[(6-amino-2-pyridyl)sulfonyl]-5-(4-dimethylaminophenyl)-2-(2,2,4-trimethylpyrrolidin-1-yl)pyridine-3-carboxamide], for which, under setting [1], the EC30 is below 3 µM.

Take `CC1CN(c2ncccc2C(=O)NS(=O)(=O)c2cccc(N3CCCC3)n2)C(C)(C)C1` (stereo not drawn) [Compound 2561, N-[(6-pyrrolidin-1-yl-2-pyridyl)sulfonyl]-2-(2,2,4-trimethylpyrrolidin-1-yl)pyridine-3-carboxamide]: the concentration for an effect of 30% (EC30) under setting [1] was below 3 µM. Same read-out and setting: the figure for `CC1CN(c2ncccc2C(=O)NS(=O)(=O)c2cccc(N(C)CC(=O)OC(C)(C)C)n2)C(C)(C)C1` (stereo not drawn) [Compound 2251, tert-butyl 2-[methyl-[6-[[2-(2,2,4-trimethylpyrrolidin-1-yl)pyridine-3-carbonyl]sulfamoyl]-2-pyridyl]amino]acetate] is below 3 µM. Turning to `CC(C)COc1cc(F)cc(-c2ccc(C(=O)NS(=O)(=O)c3cccc(N)n3)c(OC3CCC(C)C3C)n2)c1` (stereo not drawn) [Compound 503, N-[(6-amino-2-pyridyl)sulfonyl]-2-(2,3-dimethylcyclopentoxy)-6-(3-fluoro-5-isobutoxy-phenyl)pyridine-3-carboxamide], under setting [2], the concentration for an effect of 30% (EC30) result was “+++ (“+++” means <3 uM)”.

In the case of `CC[C@@H](C)Oc1ccn(-c2ccc(C(=O)NS(=O)(=O)c3cccnc3N)c(N3C[C@@H](C)CC3(C)C)n2)n1` [Compound 2705], the EC30 entry (F508del CFTR modulator activity, compounds of Table 1) was “+++ (“+++” means <3 uM)”. As for `Cc1ccnc(C)c1Oc1nc(C(C)(C)C)ccc1C(=O)NS(=O)(=O)c1cccc(N)n1` [Compound 460, N-[(6-amino-2-pyridyl)sulfonyl]-6-tert-butyl-2-[(2,4-dimethyl-3-pyridyl)oxy]pyridine-3-carboxamide], under setting [2], the EC30 entry is “++ (“++” means between 3 uM and 10 uM)”.

Turning to `Cc1c(F)cccc1-c1ccc(C(=O)NS(=O)(=O)N2CC[C@H](N)C2)c(N2C[C@@H](C)CC2(C)C)n1` [Compound 2199, N-[(3S)-3-aminopyrrolidin-1-yl]sulfonyl-6-(3-fluoro-2-methyl-phenyl)-2-[(4S)-2,2,4-trimethylpyrrolidin-1-yl]pyridine-3-carboxamide], the EC30 under setting [1] fell in the range of 3 to 10 µM.

Regarding `C[C@@H]1CN(c2nc(-c3cccc(C#N)c3)ccc2C(=O)NS(=O)(=O)c2ccc[nH]c2=O)C(C)(C)C1` [Compound 2185, 6-(3-cyanophenyl)-N-[(2-oxo-1H-pyridin-3-yl)sulfonyl]-2-[(4S)-2,2,4-trimethylpyrrolidin-1-yl]pyridine-3-carboxamide], the EC30 under setting [1] lay in the range of 3 to 10 µM. Consider `CC1CN(c2ncccc2C(=O)NS(=O)(=O)c2cccc(OCc3ccco3)n2)C(C)(C)C1` (stereo not drawn) [Compound 2308, N—[[6-(2-furylmethoxy)-2-pyridyl]sulfonyl]-2-(2,2,4-trimethylpyrrolidin-1-yl)pyridine-3-carboxamide], for which the concentration for an effect of 30% (EC30) under setting [1] is below 3 µM. As for `Cc1nc(-c2ccc(-c3cc(C(=O)NS(=O)(=O)c4ccccc4)n(Cc4c(C)cccc4C)n3)s2)no1` [Compound 151, N-(benzenesulfonyl)-2-[(2,6-dimethylphenyl)methyl]-5-[5-(5-methyl-1,2,4-oxadiazol-3-yl)-2-thienyl]pyrazole-3-carboxamide], the EC30 result under setting [2] is recorded as “+++ (“+++” means <3 uM)”. In the case of `C[C@@H]1CN(c2nc(-c3cccc(OC(F)(F)F)c3)ccc2C(=O)NS(=O)(=O)c2cccnc2N)C(C)(C)C1` [Compound 2245, N-[(2-amino-3-pyridyl)sulfonyl]-6-[13-(trifluoromethoxy)phenyl]-2-[(4S)-2,2,4-trimethylpyrrolidin-1-yl]pyridine-3-carboxamide], under setting [1], the concentration for an effect of 30% (EC30) is below 3 µM.

Turning to `CC(C)COc1cc(F)cc(-c2ccc(C(=O)NS(=O)(=O)c3cccc(N)n3)c(N3CCCC(C4CC4)C3)n2)c1` (stereo not drawn) [Compound 655, N-[(6-amino-2-pyridyl)sulfonyl]-2-(3-cyclopropyl-1-piperidyl)-6-(3-fluoro-5-isobutoxy-phenyl)pyridine-3-carboxamide], under setting [2], the EC30 entry was “+++ (“+++” means <3 uM)”. Consider `CC1CN(c2ncccc2C(=O)NS(=O)(=O)c2cccc(NCCc3ccncc3)n2)C(C)(C)C1` (stereo not drawn) [Compound 2735], for which, under setting [1], the EC30 is 3 to 10 µM. With `CC(C)Oc1ccc(-c2ccc(C(=O)NS(=O)(=O)c3cccc(N)n3)c(N3CCCC(c4ccc(F)c(F)c4)C3)n2)cn1` (stereo not drawn) [Compound 558, N-[(6-amino-2-pyridyl)sulfonyl]-2-[3-(3,4-difluorophenyl)-1-piperidyl]-6-(6-isopropoxy-3-pyridyl)pyridine-3-carboxamide], the EC30 result under setting [2] is “+++ (“+++” means <3 uM)”. With `C[C@@H]1CN(c2nc(-c3cc(F)cc(F)c3)ccc2C(=O)NS(=O)(=O)c2cccc(N)n2)C(C)(C)C1` [Compound 2236, N-[(6-amino-2-pyridyl)sulfonyl]-6-(3,5-difluorophenyl)-2-[(4S)-2,2,4-trimethylpyrrolidin-1-yl]pyridine-3-carboxamide], the concentration for an effect of 30% (EC30) under setting [1] is below 3 µM. Turning to `CCOC(=O)N1CCC(Nc2cccc(S(=O)(=O)NC(=O)c3cccnc3N3CC(C)CC3(C)C)n2)CC1` (stereo not drawn) [Compound 2253, ethyl 4-[[6-[[2-(2,2,4-trimethylpyrrolidin-1-yl)pyridine-3-carbonyl]sulfamoyl]-2-pyridyl]amino]piperidine-1-carboxylate], the EC30 under setting [1] lay within 3 to 10 µM. On to `CC(C)COc1cc(F)cc(-c2ccc(C(=O)NS(=O)(=O)C3CCCC3)c(N3C[C@@H](C)CC3(C)C)n2)c1` [Compound 2113, N-cyclopentylsulfonyl-6-(3-fluoro-5-isobutoxy-phenyl)-2-[(4S)-2,2,4-trimethylpyrrolidin-1-yl]pyridine-3-carboxamide], for which the EC30 under setting [1] is below 3 µM. On the same count and under the same terms, the figure for `CCN(CC)c1cc(C)cc(-c2ccc(C(=O)NS(=O)(=O)c3cccc(N)n3)c(N3C[C@@H](C)CC3(C)C)n2)n1` [Compound 2002, N-[(6-amino-2-pyridyl)sulfonyl]-6-[6-(diethylamino)-4-methyl-2-pyridyl]-2-[(4S)-2,2,4-trimethylpyrrolidin-1-yl]pyridine-3-carboxamide] is below 3 µM.

Consider `Cc1cccc(C)c1Cn1nc(C(C)(C)C)cc1C(=O)NS(=O)(=O)c1cccc2[nH]ncc12` [Compound 86, 5-tert-butyl-2-[(2,6-dimethylphenyl)methyl]-N-(1H-indazol-4-ylsulfonyl)pyrazole-3-carboxamide], for which the EC30 entry under setting [2] was “++ (“++” means between 3 uM and 10 uM)”.
